The values that follow are results of earlier work, collected in article PMC5766568, “Effective photo-enhancement of cellular activity of fluorophore-octaarginine antisense PNA conjugates correlates with singlet oxygen formation, endosomal escape and chromophore lipophilicity” (Scientific Reports, 2018).

The text on this data set: This could be due to a low quantum yield for singlet oxygen formation, which unfortunately is not available.

Read-outs that look alike come from different tables or passages of the source.

`N=c1ccc2c(-c3ccc(C(=O)O)cc3C(=O)O)c3ccc(N)c(S(=O)(=O)O)c3oc-2c1S(=O)(=O)O` [AF488, Alexa Fluor 488]: the “log P (octanol/water)” value is −1.44.

For `CN(C)c1ccc2c(-c3ccccc3C(=O)[O-])c3ccc(N(C)C)cc3[o+]c2c1` [TMR fluorophore, Tetramethylrhodamine], under “fluorophore alone”, the “log P (octanol/water)” value is listed as 2.92.
